± gives the expanded uncertainty stated by the source.
Assay: refractive index (Na D-line) (dimensionless)
Conditions: 293.1 K; 101.33 kPa; Liquid; Standard Abbe refractometry

Row | refractive index | SMILES
1 | 1.489 ± 0.0007 | CCC(C)c1ccccc1 (stereo not drawn) [(1-methylpropyl)benzene]
2 | 1.4281 ± 0.0007 | CN(C)C=O [dimethylformamide]
3 | 1.422 ± 0.0007 | CCCCCCCCCCCC [dodecane]
